Assay results taken from patent publication US5464861A, “2-thioindoles (selenoindoles) and related disulfides (selenides) which inhibit protein tyrosine kinases and which have antitumor properties” (Warner-Lambert, priority 1993, dated 1995).
Where two headings read alike, the source gives them in different places.

Experiments:
[1] = biological target: T1, human PDGF β receptor intracellular tyrosine kinase domain (Homo sapiens, UniProt P09619); assay: PDGF receptor tyrosine kinase inhibition assay (P^32 incorporation in Glu-Tyr); type: biochemical; conditions: for inhibition at 100 µM: PDGF-R, read-out: % Inhibition at 100 μM (PDGFR TK); for IC50: Table 2, PDGF-R, IC50 entries, read-out: IC50 (PDGFR TK)
T1 construct: human PDGF β receptor intracellular tyrosine kinase domain; made in house; host or cells: SF9 insect cells, recombinant baculovirus; cell lysates used
T1 sequence (P09619 554-1106 limits assumed): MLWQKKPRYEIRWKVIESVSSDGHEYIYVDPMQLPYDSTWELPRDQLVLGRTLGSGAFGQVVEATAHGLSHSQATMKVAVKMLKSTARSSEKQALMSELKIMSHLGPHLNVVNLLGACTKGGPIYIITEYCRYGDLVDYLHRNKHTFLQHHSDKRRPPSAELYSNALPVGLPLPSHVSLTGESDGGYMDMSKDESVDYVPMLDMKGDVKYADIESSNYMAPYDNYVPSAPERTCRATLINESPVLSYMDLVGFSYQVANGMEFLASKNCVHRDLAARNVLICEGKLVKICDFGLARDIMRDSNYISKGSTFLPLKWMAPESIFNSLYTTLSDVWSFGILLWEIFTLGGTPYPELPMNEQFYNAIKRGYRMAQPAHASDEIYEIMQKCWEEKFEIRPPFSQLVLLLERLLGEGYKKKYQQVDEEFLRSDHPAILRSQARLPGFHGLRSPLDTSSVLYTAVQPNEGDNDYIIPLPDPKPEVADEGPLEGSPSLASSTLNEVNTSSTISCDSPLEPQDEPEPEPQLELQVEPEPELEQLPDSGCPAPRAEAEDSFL
Description: Recombinant baculovirus containing human PDGF β receptor intracellular tyrosine kinase domain was used to infect SF9 cells to overexpress the protein, and cell lysates were used for the assay. The ability of the tyrosine kinase to phosphorylate glutamate tyrosine substrate in the presence of P^32 -ATP and inhibitor was measured by counting the incorporation of P^32 in Glu-Tyr in TCAprecipitable material.

[2] = biological target: T2, epidermal growth factor receptor tyrosine kinase (Homo sapiens, UniProt P00533); assay: EGF receptor tyrosine kinase assay (P^32 incorporation in GAT); type: biochemical; conditions: for inhibition at 100 µM: EGRF-R, read-out: % Inhibition at 100 μM (EGFR TK); for IC50: Table 2, EGRF-R, IC50 entries, read-out: IC50 (EGFR TK)
T2 construct: A native 170,000 epidermal growth factor receptor-kinase complex from shed plasma membrane vesicles; endogenous in cells
T2 sequence (P00533 25-1210): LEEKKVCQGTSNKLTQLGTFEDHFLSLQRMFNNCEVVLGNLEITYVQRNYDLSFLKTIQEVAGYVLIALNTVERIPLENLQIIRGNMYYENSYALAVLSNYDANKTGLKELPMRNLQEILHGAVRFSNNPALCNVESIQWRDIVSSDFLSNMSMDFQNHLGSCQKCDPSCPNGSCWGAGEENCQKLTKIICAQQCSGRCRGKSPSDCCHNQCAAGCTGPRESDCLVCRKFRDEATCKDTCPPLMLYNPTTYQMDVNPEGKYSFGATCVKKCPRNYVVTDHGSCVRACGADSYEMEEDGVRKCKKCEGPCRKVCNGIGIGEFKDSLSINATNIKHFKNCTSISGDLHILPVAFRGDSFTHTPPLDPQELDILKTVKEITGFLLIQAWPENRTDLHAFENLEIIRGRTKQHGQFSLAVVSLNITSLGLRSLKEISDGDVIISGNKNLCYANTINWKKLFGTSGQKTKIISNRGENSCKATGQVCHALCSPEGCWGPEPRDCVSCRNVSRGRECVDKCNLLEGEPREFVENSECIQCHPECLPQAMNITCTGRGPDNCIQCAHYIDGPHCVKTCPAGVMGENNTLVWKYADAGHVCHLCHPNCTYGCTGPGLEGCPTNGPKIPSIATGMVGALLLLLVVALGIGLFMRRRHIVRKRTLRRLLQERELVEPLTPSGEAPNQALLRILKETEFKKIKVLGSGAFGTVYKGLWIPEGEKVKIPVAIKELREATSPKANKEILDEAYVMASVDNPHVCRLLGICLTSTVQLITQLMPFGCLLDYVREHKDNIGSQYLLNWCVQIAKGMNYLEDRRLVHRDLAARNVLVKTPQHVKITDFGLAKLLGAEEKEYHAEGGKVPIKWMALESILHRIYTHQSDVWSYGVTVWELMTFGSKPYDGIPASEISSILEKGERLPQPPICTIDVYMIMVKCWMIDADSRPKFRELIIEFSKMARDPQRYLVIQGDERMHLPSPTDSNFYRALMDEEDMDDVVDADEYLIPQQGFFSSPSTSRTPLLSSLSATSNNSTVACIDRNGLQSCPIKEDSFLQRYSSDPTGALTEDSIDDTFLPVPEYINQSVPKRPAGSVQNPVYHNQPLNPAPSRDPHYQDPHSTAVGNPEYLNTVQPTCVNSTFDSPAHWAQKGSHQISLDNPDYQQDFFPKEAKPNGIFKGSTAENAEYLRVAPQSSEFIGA
T2 sequence (P01133 971-1023 partner limits assumed): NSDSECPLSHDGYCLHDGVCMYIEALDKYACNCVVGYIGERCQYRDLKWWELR
How it was run: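 Receptor pre-activated with 150 ng EGF for 10 min at room temperature. ATP with or without compound then added and incubated 10 min at room temperature.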

[3] = system: Swiss 3T3 mouse fibroblasts; assay: Growth inhibition assay, Swiss 3T3 fibroblasts; type: cell-based
Description: Swiss 3T3 mouse fibroblasts were maintained in dMEM/F12 media containing 10% fetal calf serum. […] The cells were grown at 37° C. under 5% CO2 for 72 hours and then counted by Coulter counter. The data were expressed as the concentration of inhibitor necessary to decrease the growth rate by 50%.

[4] = Swiss 3T3, 72 hours, Table 2, read-out: IC50 growth inhibition
[5] = Swiss-3T3, 72 h, read-out: IC50 growth inhibition

SMILES	inhibition at 100 µM [1] [%]	inhibition at 100 µM [2] [%]	IC50 [1] [µM]	IC50 [2] [µM]	IC50 [3, 4] [µM]	IC50 [3, 5] [µM]
Cn1c(SSc2c(CC(=O)O)c3ccccc3n2C)c(CC(=O)O)c2ccccc21 [Compound 32, bis[1-methylindolyl-3-acetic acid-(2)]-disulfide]	4.7	–	–	34.5	36	–
O=C(Cc1c(SSc2[nH]c3ccccc3c2CC(=O)NCc2ccccc2)[nH]c2ccccc12)NCc1ccccc1 [Compound 34, 2,2'-dithiobis[N-benzyl 2-(3-indolyl)acetamide]]	12.8	–	–	38	2.7	–
NC(Cc1c(SSc2[nH]c3ccccc3c2CC(N)C(=O)NCc2ccccc2)[nH]c2ccccc12)C(=O)NCc1ccccc1 (racemic) [Compound 62, 2,2'-dithiobis[α-amino-N-benzyl-3-(3-indolyl)propanamide]]	71	–	–	6	–	5.3
Cc1ccc(S(=O)(=O)c2c(SSc3[nH]c4ccccc4c3S(=O)(=O)c3ccc(C)cc3)[nH]c3ccccc23)cc1 [Compound 99, bis[3-(4-methylphenylsulfonyl)-2-indolyl]disulfide]	19	–	–	40	–	2.8
CN(C)CCNC(=O)c1c(SSc2c(C(=O)NCCN(C)C)c3ccccc3n2C)n(C)c2ccccc12 [Compound 115, 2,2'-dithiobis [N-(N,N-dimethylaminoethyl) 1-methylindolyl-3-carboxamide]]	–	–	19.7	26	> 50	–
CCOC(=O)CCc1c(SSc2[nH]c3cc(C)ccc3c2CCC(=O)OCC)[nH]c2cc(C)ccc12 [Compound 44, bis[ethyl 6-methylindolyl-3-propanoate-(2)] disulfide]	5	16.6	–	–	2.4	–
CCOC(=O)CCC1C(=S)Nc2ccccc21 (stereo not shown) [Compound 10, ethyl 3-(2-thioxo-3-indolinyl) propanoate]	–	10	–	–	34	–
O=C(CCc1c(SSc2[nH]c3ccccc3c2CCC(=O)NCc2ccccc2)[nH]c2ccccc12)NCc1ccccc1 [Compound 47]	–	–	–	0.85	6	–

Further lines, with some results ahead:

inhibition at 100 µM [1] [%]	inhibition at 100 µM [2] [%]	IC50 [1] [µM]	IC50 [2] [µM]	SMILES	IC50 [3, 4] [µM]	IC50 [3, 5] [µM]
20	11	–	–	COc1cccc2c1c(C(=O)Nc1ccccc1)c(SSc1c(C(=O)Nc3ccccc3)c3c(OC)cccc3n1C)n2C [Compound 79, bis [N-phenyl 4-methoxy-1-methyl indolyl-3-carboxamide-(2)]disulfide]	1.9	–
–	–	28.1	10.1	CNC(=O)c1c(SSc2c(C(=O)NC)c3ccccc3n2C)n(C)c2ccccc12 [Compound 97, bis[N-methyl 1-methylindolyl-3-carboxamide-(2)]disulfide]	1.8	–
9	–	–	1.5	Cn1c(SSc2c(C(=O)NCc3ccccc3)c3ccccc3n2C)c(C(=O)NCc2ccccc2)c2ccccc21 [Compound 98, bis[N-benzyl 1-methylindolyl-3-carboxamide-(2)]disulfide]	5 to 12	–
2	–	–	3.6	COc1ccc2c(C(=O)Nc3ccccc3)c(SSc3c(C(=O)Nc4ccccc4)c4ccc(OC)cc4n3C)n(C)c2c1 [Compound 81, bis[N-phenyl 6-methoxy-1-methylindolyl-3-carboxamide-(2)]disulfide]	17	–
19	7	–	–	Cc1ccc2c(c1)c(C(=O)Nc1ccccc1)c(SSc1c(C(=O)Nc3ccccc3)c3cc(C)ccc3n1C)n2C [Compound 76, bis [N-phenyl 1,5-dimethylindolyl-3-carboxamide-(2)] disulfide]	22	–
21	–	–	4.3	Cn1c(SSc2c(C(=O)Nc3ccccc3)c3cc(Cl)ccc3n2C)c(C(=O)Nc2ccccc2)c2cc(Cl)ccc21 [Compound 73, bis[N-phenyl 5-chloro-1-methylindolyl-3-carboxamide-(2)]disulfide]	9.3	–
